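Protocol summary: plate cells (96-well), add compound at 5 concentrations, incubate 48 h, interpolate endpoints linearly. GI50 marks 50% less growth.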 Active and inactive are the calls of the source. Rule as the data show it: active = GI50 up to about 1.1 µM and inactive = higher.
How the values were obtained:
Experiment in all cases: inhibition of tumour cell growth, NCI panel, 48 h
A498 = system: A498
HL-60 = system: HL-60
HOP-62 = system: HOP-62
HT-29 = system: HT-29
Malme-3M = system: Malme-3M
NCI-H226 = system: NCI-H226
NCI-H522 = system: NCI-H522
OVCAR-5 = system: OVCAR-5
SF-539 = system: SF-539
SK-OV-3 = system: SK-OV-3
SN12C = system: SN12C
SNB-19 = system: SNB-19
SNB-75 = system: SNB-75
SR = system: SR
U-251 = system: U-251
UACC-257 = system: UACC-257
786-0 = system: 786-0
SK-MEL-5 = system: SK-MEL-5
CAKI-1 = system: CAKI-1
HOP-92 = system: HOP-92

Compound	GI50 (A498)	GI50 (HL-60)	GI50 (HOP-62)	GI50 (HT-29)	GI50 (Malme-3M)	GI50 (NCI-H226)	GI50 (NCI-H522)	GI50 (OVCAR-5)	GI50 (SF-539)	GI50 (SK-OV-3)	GI50 (SN12C)	GI50 (SNB-19)	GI50 (SNB-75)	GI50 (SR)	GI50 (U-251)	GI50 (UACC-257)	GI50 (786-0)	GI50 (SK-MEL-5)	GI50 (CAKI-1)	GI50 (HOP-92)
CC1CN=C(NCc2ccccc2)S1 (stereo not given)	> 100 µM (inactive)	65 µM (inactive)	> 100 µM (inactive)	> 100 µM (inactive)	> 100 µM (inactive)	86.7 µM (inactive)	> 100 µM (inactive)	> 100 µM (inactive)	> 100 µM (inactive)	> 100 µM (inactive)	> 100 µM (inactive)	> 100 µM (inactive)	> 100 µM (inactive)	29 µM (inactive)	> 100 µM (inactive)	> 100 µM (inactive)	–	–	–	–
COc1ccc(CC2C(=O)NC(C)C(=O)N(C)C3Cc4ccc(cc4)Oc4cc(ccc4O)CC(C(=O)NC(C)C(=O)NC(C)C(=O)N2C)N(C)C3=O)cc1 (stereo not given)	0.0175 µM (active)	0.0175 µM (active)	0.0179 µM (active)	0.0355 µM (active)	0.0175 µM (active)	–	–	–	0.0175 µM (active)	0.0175 µM (active)	0.0175 µM (active)	–	0.0175 µM (active)	< 0.0001 µM (active)	0.0175 µM (active)	0.0175 µM (active)	< 0.0001 µM (active)	0.0175 µM (active)	–	–
c1cc2c(cc1NC1=NCCO1)CCCC2	3.76 µM (inactive)	2.66 µM (inactive)	2.67 µM (inactive)	2.62 µM (inactive)	6.7 µM (inactive)	3.37 µM (inactive)	3.52 µM (inactive)	6.07 µM (inactive)	2.74 µM (inactive)	4.38 µM (inactive)	3.56 µM (inactive)	21.7 µM (inactive)	2.08 µM (inactive)	–	4.16 µM (inactive)	3.77 µM (inactive)	5.07 µM (inactive)	3.05 µM (inactive)	18.6 µM (inactive)	2.86 µM (inactive)
CCOC(=O)/C=C1\CCCC12OCCO2	> 100 µM (inactive)	> 100 µM (inactive)	> 100 µM (inactive)	–	> 100 µM (inactive)	> 100 µM (inactive)	2.87 µM (inactive)	–	> 100 µM (inactive)	> 100 µM (inactive)	> 100 µM (inactive)	> 100 µM (inactive)	77.3 µM (inactive)	25.8 µM (inactive)	> 100 µM (inactive)	> 100 µM (inactive)	> 100 µM (inactive)	> 100 µM (inactive)	> 100 µM (inactive)	–
N#C/C(=C1\SC(C(N)=O)=C(N)N1c1ccccc1)c1nc2ccccc2[nH]1	42.6 µM (inactive)	> 100 µM (inactive)	> 100 µM (inactive)	82.8 µM (inactive)	> 100 µM (inactive)	> 100 µM (inactive)	> 100 µM (inactive)	> 100 µM (inactive)	75.9 µM (inactive)	> 100 µM (inactive)	> 100 µM (inactive)	> 100 µM (inactive)	48.2 µM (inactive)	–	> 100 µM (inactive)	> 100 µM (inactive)	> 100 µM (inactive)	> 100 µM (inactive)	> 100 µM (inactive)	39.5 µM (inactive)
O=C(Cn1c2c(c3ccccc31)CCCC2)N1CCCCC1	–	> 100 µM (inactive)	> 100 µM (inactive)	> 100 µM (inactive)	> 100 µM (inactive)	–	–	> 100 µM (inactive)	86.7 µM (inactive)	> 100 µM (inactive)	> 100 µM (inactive)	> 100 µM (inactive)	–	> 100 µM (inactive)	–	> 100 µM (inactive)	> 100 µM (inactive)	> 100 µM (inactive)	> 100 µM (inactive)	> 100 µM (inactive)
[O-][S+](Nc1ccccc1)c1ccc(-c2ccccc2)cc1 (stereo not given)	–	> 100 µM (inactive)	> 100 µM (inactive)	> 100 µM (inactive)	> 100 µM (inactive)	> 100 µM (inactive)	> 100 µM (inactive)	> 100 µM (inactive)	> 100 µM (inactive)	–	> 100 µM (inactive)	> 100 µM (inactive)	–	> 100 µM (inactive)	> 100 µM (inactive)	> 100 µM (inactive)	> 100 µM (inactive)	> 100 µM (inactive)	–	–
CC(=O)OCCOCNC(=S)N/N=C/c1cc(Br)cs1	> 100 µM (inactive)	> 100 µM (inactive)	> 100 µM (inactive)	> 100 µM (inactive)	> 100 µM (inactive)	> 100 µM (inactive)	> 100 µM (inactive)	> 100 µM (inactive)	> 100 µM (inactive)	> 100 µM (inactive)	> 100 µM (inactive)	> 100 µM (inactive)	> 100 µM (inactive)	> 100 µM (inactive)	> 100 µM (inactive)	> 100 µM (inactive)	> 100 µM (inactive)	> 100 µM (inactive)	–	–
Cc1cc(N(CCC#N)S(=O)(=O)c2ccccc2)ccc1C=O	> 100 µM (inactive)	> 100 µM (inactive)	> 100 µM (inactive)	> 100 µM (inactive)	> 100 µM (inactive)	> 100 µM (inactive)	> 100 µM (inactive)	> 100 µM (inactive)	> 100 µM (inactive)	> 100 µM (inactive)	> 100 µM (inactive)	> 100 µM (inactive)	> 100 µM (inactive)	> 100 µM (inactive)	> 100 µM (inactive)	> 100 µM (inactive)	> 100 µM (inactive)	> 100 µM (inactive)	> 100 µM (inactive)	–
Cc1ccc2nc(Cl)c(/C=N/N3C(=O)/C(=C/c4ccc(N(C)C)cc4)N=C3c3ccccc3)cc2c1	43.8 µM (inactive)	32.4 µM (inactive)	42.8 µM (inactive)	63.7 µM (inactive)	–	–	–	> 100 µM (inactive)	18.2 µM (inactive)	> 100 µM (inactive)	80.7 µM (inactive)	> 100 µM (inactive)	24 µM (inactive)	32.6 µM (inactive)	26 µM (inactive)	80.2 µM (inactive)	> 100 µM (inactive)	48.5 µM (inactive)	> 100 µM (inactive)	71.3 µM (inactive)
CCCCn1c(C)c2c(c1C)C(=O)N(CC(O)CN1CCc3ccccc3C1)C2=O (stereo not given)	29.8 µM (inactive)	98.4 µM (inactive)	> 100 µM (inactive)	37.8 µM (inactive)	93.3 µM (inactive)	68.7 µM (inactive)	> 100 µM (inactive)	> 100 µM (inactive)	69.8 µM (inactive)	> 100 µM (inactive)	90.4 µM (inactive)	> 100 µM (inactive)	> 100 µM (inactive)	–	81.5 µM (inactive)	33.4 µM (inactive)	45.8 µM (inactive)	31.5 µM (inactive)	80.2 µM (inactive)	> 100 µM (inactive)
NC1CCC2(O)c3ccccc3C2C1 (stereo not given)	–	> 100 µM (inactive)	> 100 µM (inactive)	> 100 µM (inactive)	> 100 µM (inactive)	> 100 µM (inactive)	> 100 µM (inactive)	–	–	> 100 µM (inactive)	> 100 µM (inactive)	> 100 µM (inactive)	> 100 µM (inactive)	> 100 µM (inactive)	> 100 µM (inactive)	> 100 µM (inactive)	> 100 µM (inactive)	> 100 µM (inactive)	–	–
CC1C=CC(C)C2(O)C(=O)NC(O)C12 (stereo not given)	> 100 µM (inactive)	> 100 µM (inactive)	> 100 µM (inactive)	–	> 100 µM (inactive)	> 100 µM (inactive)	> 100 µM (inactive)	–	> 100 µM (inactive)	> 100 µM (inactive)	> 100 µM (inactive)	> 100 µM (inactive)	> 100 µM (inactive)	> 100 µM (inactive)	> 100 µM (inactive)	> 100 µM (inactive)	> 100 µM (inactive)	> 100 µM (inactive)	> 100 µM (inactive)	–
CC(=O)O[C@H]1C(=O)[C@@]2(C)[C@H]([C@H](OC(=O)c3ccccc3)[C@]3(O)C[C@H](OC(=O)[C@H](O)[C@@H](NC(=O)c4ccco4)c4ccccc4)C(C)=C1C3(C)C)[C@]1(OC(C)=O)CO[C@@H]1C[C@@H]2O	0.0141 µM (active)	< 0.00125 µM (active)	< 0.00125 µM (active)	< 0.00125 µM (active)	–	0.00126 µM (active)	< 0.00125 µM (active)	< 0.00125 µM (active)	< 0.00125 µM (active)	< 0.00125 µM (active)	–	0.00134 µM (active)	< 0.00125 µM (active)	< 0.00125 µM (active)	< 0.00125 µM (active)	–	0.00421 µM (active)	< 0.00125 µM (active)	0.278 µM (active)	–
COc1cc2c(cc1OC)C(=O)/C(=C/c1cc(Cl)cc(Cl)c1)C2	17 µM (inactive)	1.35 µM (inactive)	9.35 µM (inactive)	2.59 µM (inactive)	8.51 µM (inactive)	3.87 µM (inactive)	2.04 µM (inactive)	> 34.1 µM (inactive)	2.49 µM (inactive)	–	5.93 µM (inactive)	> 26.4 µM (inactive)	1.86 µM (inactive)	–	5.32 µM (inactive)	26 µM (inactive)	4.73 µM (inactive)	2.54 µM (inactive)	4.33 µM (inactive)	18.7 µM (inactive)
O=C(O)c1ccccn1 [2-PICOLINIC ACID]	> 100 µM (inactive)	–	> 100 µM (inactive)	> 100 µM (inactive)	–	> 100 µM (inactive)	–	> 100 µM (inactive)	> 100 µM (inactive)	–	> 100 µM (inactive)	> 100 µM (inactive)	> 100 µM (inactive)	> 100 µM (inactive)	> 100 µM (inactive)	> 100 µM (inactive)	> 100 µM (inactive)	> 100 µM (inactive)	> 100 µM (inactive)	> 100 µM (inactive)

— ChEMBL document CHEMBL1201862, “PubChem BioAssay data set” (2004)
